Consider 23 compounds from patent publication US12378224B2 (Dong-A Socio Holdings Co., Ltd., priority 2016, dated 2025).

The experiment concerns the target human MER (528-end) (Homo sapiens (Human), UniProt Q12866). Nature of the experiment: HTRF Kinase Activity Biochemical Assay (KinEASE-TK). Conditions: 10 uM ATP. The method, then:
For the SAR (structure-activity relationship) and compound screening, HTRF (Homogeneous Time Resolved Fluorescence) kinase activity assay was employed for all MER, AXL and TYRO3 kinases using Cisbio HTRF® KinEASE™-TK kit (Cisbio, USA). The kit includes biotin-labeled TK substrate, streptavidin-XL665, Eu3+-cryptate-labeled TK antibody and HTRF® Detection buffer. There are two main steps in the kinase assay: kinase reaction and detection of phosphorylated substrate. The reaction was carried out in white low volume 384-well plate (Corning, USA) with 25 nL compound in dimethyl sulfoxide in each well. […] Then the reaction was stopped after 1 hour incubation at room temperature by adding 5 uL of HTRF® Detection buffer which also contains 0.375 nM Eu3+-cryptate-labeled TK antibody and 0.062 uM streptavidin-XL665(SA-XL665) to allow for detection of the phosphorylated peptide product. After 1 h incubation at room temperature, the fluorescence intensity was measured with Envision™ plate reader (PerkinElmer, USA). Upon excitation at 340 nm by UV, the energy from Eu3+ donor of the antibody is transferred to the FRET acceptor XL665, and […] emits light at 665 nm. The level of kinase activity was quantified by the HTRF ratio that calculated from the intensity of emission at 665 nm and emission at 620 nm (fluorescence intensity @ 665 nm/fluorescence intensity @ 620 nm×10,000). The recombinant protein of human MER (528-end) was purchased from Carnabio, Japan. The recombinant human AXL (473-end) and TYRO3 (455-end) were purchased from SignalChem, Canada.

Molecules are shown by their SMILES.

Sequence of human MER (528-end) (Q12866 528-999 limits assumed): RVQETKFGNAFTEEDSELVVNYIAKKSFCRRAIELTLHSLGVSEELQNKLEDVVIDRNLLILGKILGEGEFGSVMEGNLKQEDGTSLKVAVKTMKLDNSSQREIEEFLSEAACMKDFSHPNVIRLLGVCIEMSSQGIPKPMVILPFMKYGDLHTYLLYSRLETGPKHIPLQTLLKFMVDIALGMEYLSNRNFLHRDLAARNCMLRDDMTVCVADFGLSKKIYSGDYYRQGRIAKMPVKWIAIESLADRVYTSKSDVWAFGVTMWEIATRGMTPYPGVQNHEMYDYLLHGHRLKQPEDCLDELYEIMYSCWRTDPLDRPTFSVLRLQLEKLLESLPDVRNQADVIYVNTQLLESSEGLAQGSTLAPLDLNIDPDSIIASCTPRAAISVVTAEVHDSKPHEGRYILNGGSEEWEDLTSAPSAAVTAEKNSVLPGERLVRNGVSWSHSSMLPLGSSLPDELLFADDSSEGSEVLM

The IC50 is the concentration that inhibits the measured activity by half. The compound `Cn1cc(-c2cnc(N)c(C(=O)N[C@@H]3CCN(C(=O)N[C@@H]4CCCC[C@H]4O)C3)c2)cn1` [Example 32, 2-amino-N—((R)-1-(((1R,2R)-2-hydroxycyclohexyl)carbamoyl)pyrrolidin-3-yl)-5-(1-methyl-1H-pyrazol-4-yl)nicotinamide] showed an IC50 greater than 1000 nM.

For the compound `Cn1cc(-c2cnc(N)c(C(=O)N[C@@H]3CCN(C(=O)Nc4cc(Cl)cc(Cl)c4)C3)c2)cn1` [Example 34, (R)-2-amino-N-(1-((3,5-dichlorophenyl)carbamoyl)pyrrolidin-3-yl)-5-(1-methyl-1H-pyrazol-4-yl)nicotinamide], the half-inhibitory concentration (IC50) was in the range of 100 to 1000 nM.

Take `Nc1ncc(-c2ccc(CN3CCOCC3)cc2)cc1C(=O)N[C@@H]1CCN(C(=O)Nc2cccc(-c3ccccc3)c2)C1` [Example 38, (R)—N-(1-([1,1′-biphenyl]-3-ylcarbamoyl)pyrrolidin-3-yl)-2-amino-5-(4-(morpholinomethyl)phenyl)nicotinamide]: the IC50 lay within 10 to 100 nM.

On to `Cn1cc(-c2cnc(N)c(C(=O)N[C@@H]3CCN(C(=O)N[C@H]4CCC[C@@H]4OCc4ccccc4)C3)c2)cn1` [Example 40, 2-amino-N—((R)-1-(((1S,2S)-2-(benzyloxy)cyclopentyl)carbamoyl)pyrrolidin-3-yl)-5-(1-methyl-1H-pyrazol-4-yl)nicotinamide], for which the IC50 was greater than 1000 nM.

As to `Cn1cc(-c2cnc(N)c(C(=O)N[C@@H]3CCN(C(=O)NC4CCC(OCc5ccccc5)C4)C3)c2)cn1` (stereo partly drawn) [Example 41, 2-amino-N-((3R)-1-((3-(benzyloxy)cyclopentyl)carbamoyl)pyrrolidin-3-yl)-5-(1-methyl-1H-pyrazol-4-yl)nicotinamide], the IC50 is greater than 1000 nM.

In turn, `Cn1cc(-c2cnc(N)c(C(=O)N[C@@H]3CCN(C(=S)Nc4ccc(F)cc4)C3)c2)cn1` [Example 42, (R)-2-amino-N-(1-((4-fluorophenyl)carbamothioyl)pyrrolidin-3-yl)-5-(1-methyl-1H-pyrazol-4-yl)nicotinamide] showed a half-inhibitory concentration (IC50) greater than 1000 nM.

For the compound `Cn1cc(-c2cnc(N)c(C(=O)N[C@@H]3CCN(C(=S)NCc4ccccc4)C3)c2)cn1` [Example 43, (R)-2-amino-N-(1-(benzylcarbamothioyl)pyrrolidin-3-yl)-5-(1-methyl-1H-pyrazol-4-yl)nicotinamide], the half-inhibitory concentration (IC50) is greater than 1000 nM.

In turn, `Cn1cc(-c2cnc(N)c(C(=O)N[C@@H]3CCN(C(=S)Nc4ccc(Cl)c(Cl)c4)C3)c2)cn1` [Example 44, (R)-2-amino-N-(1-((3,4-dichlorophenyl)carbamothioyl)pyrrolidin-3-yl)-5-(1-methyl-1H-pyrazol-4-yl)nicotinamide] gave an IC50 greater than 1000 nM.

`COc1ccc(NC(=S)N2CC[C@@H](NC(=O)c3cc(-c4cnn(C)c4)cnc3N)C2)cc1` [Example 45, (R)-2-amino-N-(1-((4-methoxyphenyl)carbamothioyl)pyrrolidin-3-yl)-5-(1-methyl-1H-pyrazol-4-yl)nicotinamide] displayed a half-inhibitory concentration (IC50) greater than 1000 nM.

On to `Cn1cc(-c2cnc(N)c(C(=O)N[C@@H]3CCN(C(=S)Nc4ccc(Br)cc4)C3)c2)cn1` [Example 46, (R)-2-amino-N-(1-((4-bromophenyl)carbamothioyl)pyrrolidin-3-yl)-5-(1-methyl-1H-pyrazol-4-yl)nicotinamide], for which the concentration for half-maximal inhibition (IC50) was greater than 1000 nM.

As for `Cn1cc(-c2cnc(N)c(C(=O)N[C@@H]3CCN(C(=S)Nc4ccc([N+](=O)[O-])cc4)C3)c2)cn1` [Example 47, (R)-2-amino-5-(1-methyl-1H-pyrazol-4-yl)-N-(1-((4-nitrophenyl)carbamothioyl)pyrrolidin-3-yl)nicotinamide], the IC50 was greater than 1000 nM.

`CN(C)c1ccc(NC(=S)N2CC[C@@H](NC(=O)c3cc(-c4cnn(C)c4)cnc3N)C2)cc1` [Example 48, (R)-2-amino-N-(1-((4-(dimethylamino)phenyl)carbamothioyl)pyrrolidin-3-yl)-5-(1-methyl-1H-pyrazol-4-yl)nicotinamide] registered an IC50 greater than 1000 nM.

Compound `Cn1cc(-c2cnc(N)c(C(=O)N[C@@H]3CCN(C(=S)Nc4cc(Cl)cc(Cl)c4)C3)c2)cn1` [Example 50, (R)-2-amino-N-(1-((3,5-dichlorophenyl)carbamothioyl)pyrrolidin-3-yl)-5-(1-methyl-1H-pyrazol-4-yl)nicotinamide] returned a half-inhibitory concentration (IC50) of 100 to 1000 nM.

`Cn1cc(-c2cnc(N)c(C(=O)N[C@@H]3CCN(C(=S)Nc4cccc(-c5ccccc5)c4)C3)c2)cn1` [Example 51, (R)—N-(1-([1,1′-biphenyl]-3-ylcarbamothioyl)pyrrolidin-3-yl)-2-amino-5-(1-methyl-1H-pyrazol-4-yl)nicotinamide] gave an IC50 of 100 to 1000 nM.

As for `Cn1cc(-c2cnc(N)c(C(=O)N[C@@H]3CCN(C(=S)Nc4cccc(Br)c4)C3)c2)cn1` [Example 52, (R)-2-amino-N-(1-((3-bromophenyl)carbamothioyl)pyrrolidin-3-yl)-5-(1-methyl-1H-pyrazol-4-yl)nicotinamide], the IC50 is greater than 1000 nM.

`Cn1cc(-c2cnc(N)c(C(=O)N[C@@H]3CCN(C(=O)Oc4ccccc4)C3)c2)cn1` [Example 54, phenyl (R)-3-(2-amino-5-(1-methyl-1H-pyrazol-4-yl)nicotinamido)pyrrolidine-1-carboxylate] returned an IC50 greater than 1000 nM.

Regarding `Cn1cc(-c2cnc(N)c(C(=O)N[C@@H]3CCN(C(=O)Oc4cccc(C(=O)N5CCCCC5)c4)C3)c2)cn1` [Example 55, 3-(piperidine-1-carbonyl)phenyl (R)-3-(2-amino-5-(1-methyl-1H-pyrazol-4-yl)nicotinamido)pyrrolidine-1-carboxylate], the IC50 is greater than 1000 nM.

In turn, `Cn1cc(-c2cnc(N)c(C(=O)N[C@@H]3CCN(C(=O)Oc4ccc5c(c4)CCCC5)C3)c2)cn1` [Example 56, 5,6,7,8-tetrahydronaphthalen-2-yl (R)-3-(2-amino-5-(1-methyl-1H-pyrazol-4-yl)nicotinamido)pyrrolidine-1-carboxylate] displayed an IC50 of 100 to 1000 nM.

`Cc1cc(OC(=O)N2CC[C@@H](NC(=O)c3cc(-c4cnn(C)c4)cnc3N)C2)cc(C(C)C)c1` [Example 57, 3-isopropyl-5-methylphenyl (R)-3-(2-amino-5-(1-methyl-1H-pyrazol-4-yl)nicotinamido)pyrrolidine-1-carboxylate] came in with an IC50 greater than 1000 nM.

Turning to `Cn1cc(-c2cnc(N)c(C(=O)N[C@@H]3CCN(C(=O)Oc4ccccc4OCc4ccccc4)C3)c2)cn1` [Example 58, 2-(benzyloxy)phenyl (R)-3-(2-amino-5-(1-methyl-1H-pyrazol-4-yl)nicotinamido)pyrrolidine-1-carboxylate], the half-maximal inhibitory concentration (IC50) is greater than 1000 nM.

Compound `Cn1cc(-c2cnc(N)c(C(=O)N[C@@H]3CCN(C(=O)Oc4cccc(OCc5ccccc5)c4)C3)c2)cn1` [Example 59, 3-(benzyloxy)phenyl (R)-3-(2-amino-5-(1-methyl-1H-pyrazol-4-yl)nicotinamido)pyrrolidine-1-carboxylate] came in with an IC50 greater than 1000 nM.

Consider `Cn1cc(-c2cnc(N)c(C(=O)N[C@@H]3CCN(C(=O)Oc4cccc(Cl)c4Cl)C3)c2)cn1` [Example 60, 2,3-dichlorophenyl (R)-3-(2-amino-5-(1-methyl-1H-pyrazol-4-yl)nicotinamido)pyrrolidine-1-carboxylate], for which the IC50 was greater than 1000 nM.

As to `Cn1cc(-c2cnc(N)c(C(=O)N[C@@H]3CCN(C(=O)Oc4cc(Cl)ccc4Cl)C3)c2)cn1` [Example 61, 2,5-dichlorophenyl (R)-3-(2-amino-5-(1-methyl-1H-pyrazol-4-yl)nicotinamido)pyrrolidine-1-carboxylate], the half-maximal inhibitory concentration (IC50) is greater than 1000 nM.
